Reference: patent US12053533B2, “Fluorescent probe for cyclooxygenase-2” (The Board of Trustees of the University of Illinois, priority 2020, dated 2024)

Columns and labels:
COX-2 [1] = molecular target: T1, COX-2 (Homo sapiens, UniProt P35354); assay: COX-2 fluorescence assay with CoxFluor (fluorimeter / plate reader); format: biochemical; set-up: made in house; conditions: COX-2 250 nM, 4 h
T1 sequence (P35354 18-604): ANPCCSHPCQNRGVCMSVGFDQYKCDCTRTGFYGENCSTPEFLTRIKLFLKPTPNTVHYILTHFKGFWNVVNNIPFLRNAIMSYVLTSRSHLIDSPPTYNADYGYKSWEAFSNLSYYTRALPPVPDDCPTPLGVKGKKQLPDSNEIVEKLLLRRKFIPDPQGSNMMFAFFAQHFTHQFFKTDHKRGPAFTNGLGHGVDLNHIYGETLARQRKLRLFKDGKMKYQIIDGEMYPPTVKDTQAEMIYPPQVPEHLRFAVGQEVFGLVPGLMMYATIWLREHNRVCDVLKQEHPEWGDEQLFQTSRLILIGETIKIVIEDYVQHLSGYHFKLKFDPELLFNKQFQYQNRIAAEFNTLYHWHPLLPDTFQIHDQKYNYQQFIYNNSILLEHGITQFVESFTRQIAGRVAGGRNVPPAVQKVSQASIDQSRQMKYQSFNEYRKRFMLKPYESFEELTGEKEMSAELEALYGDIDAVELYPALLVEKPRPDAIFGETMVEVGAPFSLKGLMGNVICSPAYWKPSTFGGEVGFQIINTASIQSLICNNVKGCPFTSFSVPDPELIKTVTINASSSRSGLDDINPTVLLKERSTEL
Method: Fluorimeter Fluorescence Assay. The fluorescence assays were performed in microquartz cuvettes or submicroquartz cuvettes with a maximum volume of 600 μL. Reactions were monitored at room temperature using 540 nm excitation and emission was collected from 550-700 nm with a slit width of 1.25 mm. Total volumes of the reaction mixtures were maintained at 570 μL. […] Experiments in the presence of reduced GSH were conducted according to the same procedure, but GSH (30 μL, 19 mM in 100 mM Tris-HCl, pH 8.0) was added before the addition of CoxFluor for a final concentration of 1 mM. Assays performed in submicroquartz cuvettes were performed maintaining the same ratios, but with a final volume of 142.5 μL.
Plate Reader Fluorescence Assay. The fluorescence assays were performed at room temperature using 540 nm excitation and 590 nm emission. Total volume of the reaction mixture was maintained at 190 μL. […] Inhibition assays were performed according to the same procedure, but COX-2 was preincubated with hemin and inhibitor for 0.5 h at 0° C. before initiation with CoxFluor. Relative fluorescence enhancement is calculated by comparing to a buffer control with 10 μM CoxFluor.

COX-2 [2] = molecular target: T1, COX-2; conditions: comparison values for other COX-2 substrates; cited from earlier work
[3] = CoxFluor, Ctrl-CoxFluor & Resorufin stability assays; format: physicochemical; conditions: 8 hours at room temperature or 37° C., with or without ambient light
Method: CoxFluor, Ctrl-CoxFluor & Resorufin Stability Assays. Stability assays were performed for a 10 μM solution of each compound in a series of buffers/solvents (100 mM Tris-HCl at pH 8.0, DMEM with 10% FBS, DMEM without serum and DMSO). Stability was assessed at room temperature or at 37° C. and in the presence or absence of ambient light. Fluorescence was measured using the plate reader with excitation at 540 nm and emission from 560-700 nm and the relative turn-on was determined by the change of fluorescence intensity at 590 nm.

[4] = Photophysical characterization; format: physicochemical
Method: Photophysical Characterization. Extinction coefficients and fluorescence quantum yields were acquired (n=3) and reported as the average with a relative standard deviation less than 15%. Extinction coefficients were acquired by titrating compound in 100 mM Tris-HCl (pH 8.0) within the linear range. Fluorescence quantum yields were obtained using the modified method for relative fluorescence quantum yield. Dye was titrated into the solution and the absorbance and emission were monitored (excitation at 540 nm). The absorbance was maintained below 0.1 to limit secondary absorbance events. Total emission spectra were integrated, and the relative quantum yield was calculated relative to Rhodamine B (ϕ=0.70, ethanol). The refractive index of 100 mM Tris-HCl (pH 8.0) was measured to be 1.33514.

[5] = ethanol; cited from earlier work
[6] = test system: COX-2 activity in HEK 293T cells over-expressing human COX-2; assay: Confocal live-cell imaging of human COX-2 transfected HEK 293T cells; format: cell-based; conditions: indomethacin 10 μM, CoxFluor 10 μM, 3 h
Method: Prior to plating onto 4-well chambered cover glasses, the surface exposed substrate was coated with R&D Systems™ Cultrex Poly-L-Lysine (Fisher Scientific) according to the manufacturers protocol (allowed to dry>3 h). […] Transfections was performed using Lipofectamine 3000 (Thermo Fisher Scientific) according to the manufacturer's protocol. […] Media was removed from each well and replaced with 500 μL Opti-MEM™ Reduced Serum Media followed by the addition of 20 μL transfection master mix.
Transfections were performed using the Lipofectamine 3000 reagent according to the aforementioned protocol. Control wells were treated the same as the transfected wells without the addition of the transfection master mix. […] Each well was imaged using a Zeiss LSM 700 confocal microscope (n=3 technical replicates; n=4 biological replicates). For GSH knockdown experiments, the initial media change was performed with 1 mM NEM (0.1% DMSO final concentration) in serum-free DMEM media and the cells were allowed to incubate for 30 minutes before proceeding to the staining with CoxFluor. […] All images were processed using identical parameters and false colored (LUT: jet.lut) in ImageJ.

[7] = substrate: CCCCC/C=C\C/C=C\C/C=C\C/C=C\CCCC(=O)N1c2ccc(O)cc2Oc2cc(O)ccc21; assay: COX-2 fluorescence assay with CoxFluor (fluorimeter / plate reader); format: biochemical, human; conditions: other: steady state; COX-2 50 nM, hemin 200 nM; pH 8.0

## CCN1C(=O)C=CC1=O [NEM, N-ethylmaleimide, reference compound]
COX-2 [1]; varying N-ethylmaleimide concentrations, CoxFluor 10 μM
  effect on COX activity: does not affect COX activity

## CCCCC/C=C\C/C=C\C/C=C\C/C=C\CCCC(=O)NCCO [arachidonyl ethanolamide]
COX-2 [2]
  Km: 24 µM

## O=c1ccc2nc3ccc(O)cc3oc-2c1 [resorufin, reference compound]
[3]
  stability in Tris-HCl and DMEM buffer systems: stable
[4]; 100 mM Tris-HCl pH 8.0
  extinction coefficient ε at 573 nm: 73,000 M^−1cm^−1
[4]; 100 mM Tris-HCl pH 8.0, relative to Rhodamine B
  fluorescence quantum yield ΦF: 0.55

## CCCCCCCCCCCCCCCCCCCC(=O)N1c2ccc(O)cc2Oc2cc(O)ccc21 [Ctrl-CoxFluor]
COX-2 [1]; hemin 1 μM
  reactivity with COX-2 under the same reaction conditions: unreactive

## CCN(CC)c1ccc2c(-c3ccccc3C(=O)O)c3ccc(=[N+](CC)CC)cc-3oc2c1.[Cl-] [Rhodamine B]
[5]
  quantum yield ϕ of reference standard: 0.70

## COc1ccc2c(c1)c(CC(=O)O)c(C)n2C(=O)c1ccc(Cl)cc1 [indomethacin, reference compound]
[6]
  fluorescence enhancement of transfected cells upon treatment with inhibitor: no fluorescence enhancement was observed

## CCCCC/C=C\C/C=C\C/C=C\C/C=C\CCCC(=O)O [AA, arachidonic acid]
COX-2 [2]
  Km: 6 µM

B1: recombinant human COX-2 (Homo sapiens) (protein)
chain: ANPCCSHPCQNRGVCMSVGFDQYKCDCTRTGFYGENCSTPEFLTRIKLFLKPTPNTVHYILTHFKGFWNVVNNIPFLRNAIMSYVLTSRSHLIDSPPTYNADYGYKSWEAFSNLSYYTRALPPVPDDCPTPLGVKGKKQLPDSNEIVEKLLLRRKFIPDPQGSNMMFAFFAQHFTHQFFKTDHKRGPAFTNGLGHGVDLNHIYGETLARQRKLRLFKDGKMKYQIIDGEMYPPTVKDTQAEMIYPPQVPEHLRFAVGQEVFGLVPGLMMYATIWLREHNRVCDVLKQEHPEWGDEQLFQTSRLILIGETIKIVIEDYVQHLSGYHFKLKFDPELLFNKQFQYQNRIAAEFNTLYHWHPLLPDTFQIHDQKYNYQQFIYNNSILLEHGITQFVESFTRQIAGRVAGGRNVPPAVQKVSQASIDQSRQMKYQSFNEYRKRFMLKPYESFEELTGEKEMSAELEALYGDIDAVELYPALLVEKPRPDAIFGETMVEVGAPFSLKGLMGNVICSPAYWKPSTFGGEVGFQIINTASIQSLICNNVKGCPFTSFSVPDPELIKTVTINASSSRSGLDDINPTVLLKERSTEL
notes: made in house
[7]
  Km: 22 µM
  kcat: 0.317 s⁻¹
